Several values for one entry are separate records, joined by “and”; a condition that tells them apart may be missing. Equal entries are not always repeated. Ends that are not written are not given here. Peptide text beside a SMILES is read from it.
How the values were obtained:
SIRT3 = SIRT3 transcription, semi-quantitative RT-PCR in human epidermal progenitors; type: cell-based; details: 72 h
Protocol: (§1) Human neonatal epidermal progenitors (Thermo Fisher Scientific, NY) were seeded in 6-well plates at a density of 2×10^5 cells/well. Each well received 2 ml of Epilife media containing 60 μM calcium chloride (Thermo Fisher Scientific, NY). Plates were incubated in a humidified chamber at 37 degrees Celsius and 5 percent CO2. Twenty-four hours later, cells were treated with various concentrations of oxyresveratrol or decapeptide-12 dissolved in PBS containing 5 percent DMSO. Control wells received vehicle only (5 percent DMSO and PBS). Final concentration of DMSO in each well was 0.05 percent.
(§2) After a 72 hour incubation period, cells were trypsinized and total RNA extracted, using RNeasy kit (Qiagen, Valencia, Calif.) according to the manufacturer's protocol.
(§3) RNA concentration was determined using nanodrop (Thermo fisher scientific, NY). Two μg of total RNA were used to synthesize cDNA using oligo dT primers and TaqMan reverse transcription reagents (Thermo fisher scientific, NY). The reaction was carried out in DNA Engine Peltier Thermal Cycler (Bio-Rad, Hercules, Calif.). The annealing temperature was 25 degrees Celsius for 10 minutes, followed by first strand synthesis at 48 degrees Celsius for 1 hour, and heat inactivation at 95 degrees Celsius for 5 minutes.
(§4) The SIRT1-7 primers (table 1) were designed using Primer3. The semi-quantitative PCR reactions were performed on a DNA Engine Peltier Thermo Cycler (Bio-Rad, Hercules, Calif.). PCR was carried under the following conditions: denaturation at 94 degrees Celsius for 2 minutes and primer extension at 54 degrees Celsius for 30 seconds in 34 cycles for SIRT 1-7 and the housekeeping gene 18S.
(§5) Samples were run and resolved on a 1.5 percent agarose gel containing 0.5 μg/ml of ethidium bromide and imaged using the FluorChem HD2 Imaging System (Protein simple, San Jose, Calif.). Densitometry analysis was carried out using the AlphaEase FC software (Protein simple, San Jose, Calif.). Intensity ratios were calculated as the intensity value for each gene divided by the intensity value of the internal control gene 18S.
(§6) The effect of the decapeptides P4, P4A, P4B, and P4C upon the transcription levels of sirtuins 1-7 was evaluated. Table 4 summarizes transcription levels for all four decapeptides with the corresponding genes, at tested concentrations of: 10, 30, 50, 100, and 300 (all in μM).

SIRT5 = SIRT5 transcription, semi-quantitative RT-PCR in human epidermal progenitors; type: cell-based; details: 72 h
Protocol: as §1, §2, §3, §4, §5, §6

SIRT6 = SIRT6 transcription, semi-quantitative RT-PCR in human epidermal progenitors; type: cell-based; details: 72 h
Protocol: as §1, §2, §3, §4, §5, §6

human skin = details: previously reported; cited from earlier work
[1] = Trypan blue cell viability, 7 days, fibroblasts; type: cell-based; details: human, relative to control, read-out: fibroblast viability after 7 days
Protocol: The effect of each of the decapeptides upon cell viability was also tested. In particular, cells were incubated with the decapeptide at various concentrations and then counted for viability relative to the control (untreated cells) using trypan blue. Cytotoxicity was measured according to the following formula:
[1−(# of cells in control−# of live cells in test sample)/# of cells in control]×100 percent.

patients with dyschromia = details: topical cream containing 0.01 percent, twice daily for 8 weeks; cited from earlier work
[2] = tested on: human epidermal progenitors; assay: Trypan blue dye exclusion cytotoxicity assay, 72 h, epidermal progenitors; type: cell-based; details: human epidermal progenitors; for cell death: 72 h, trypan blue
Protocol: Cellular toxicity was measured using a trypan blue dye exclusion assay. Cells were cultured in 6-well plates at a density of 4×10^5 cells/well. Each well received a different concentration of decapeptide-12 or oxyresveratrol (0, 3, 10, 30, 100, 300, and 1000 μM). Plates were incubated at 37 degrees Celsius in a humidified 5 percent CO2 chamber. After 72 h, an aliquot was taken and cells counted using a hemacytometer. Cytotoxicity was measured according to the following formula: [1−(# of cells in control−# of live cells in test sample)/# of cells in control]×100 percent.

YRSRKYSSWY [decapeptide-12, YRSRKYSSWY]
SIRT3 transcription increase relative to control (SIRT3; 3 μM): 4 ± 1%
SIRT3 transcription increase relative to control (SIRT3; 10 μM): 9.2 ± 2.8%
SIRT3 transcription increase relative to control (SIRT3; 10 μM, listed as P4): 9 ± 3%
SIRT3 transcription increase relative to control (SIRT3; 30 μM): 32.2 ± 6.1%
SIRT3 transcription increase relative to control (SIRT3; 30 μM, listed as P4): 32 ± 6%
SIRT3 transcription increase relative to control (SIRT3; 50 μM): 65 ± 12.1%
SIRT3 transcription increase relative to control (SIRT3; 50 μM, listed as P4): 65 ± 12%
SIRT3 transcription increase relative to control (SIRT3; 100 μM): 121±13%
SIRT3 transcription increase relative to control (SIRT3; 100 μM, listed as Deca): 121 ± 13.2%
SIRT3 transcription increase relative to control (SIRT3; 100 μM, listed as P4): 121 ± 13%
SIRT3 transcription increase relative to control (SIRT3; 100 μM, listed as decapeptide): 121%
SIRT3 transcription increase relative to control (SIRT3; 300 μM): 165.2 ± 12.4%
SIRT3 transcription increase relative to control (SIRT3; 300 μM, listed as P4): 165 ± 12%
SIRT3 transcription increase relative to control (SIRT3; 500 μM): 177 ± 9.2%
SIRT3 transcription increase relative to control (SIRT3; 1000 μM): 171 ± 9%
SIRT5 transcription increase relative to control (SIRT5; 3 μM): 3 ± 1%
SIRT5 transcription increase relative to control (SIRT5; 10 μM): 5.2 ± 3%^
SIRT5 transcription increase relative to control (SIRT5; 10 μM, listed as P4): 5 ± 3%
SIRT5 transcription increase relative to control (SIRT5; 30 μM): 21 ± 6.7%
SIRT5 transcription increase relative to control (SIRT5; 30 μM, listed as P4): 21 ± 7%
SIRT5 transcription increase relative to control (SIRT5; 50 μM): 33.1 ± 6.1%
SIRT5 transcription increase relative to control (SIRT5; 50 μM, listed as P4): 33 ± 6%
SIRT5 transcription increase relative to control (SIRT5; 100 μM, listed as Deca): 46 ± 7.3%
SIRT5 transcription increase relative to control (SIRT5; 100 μM, listed as P4): 46 ± 7%
SIRT5 transcription increase relative to control (SIRT5; 300 μM): 67 ± 9.3%
SIRT5 transcription increase relative to control (SIRT5; 300 μM, listed as P4): 67 ± 9%
SIRT5 transcription increase relative to control (SIRT5; 500 μM): 87.4 ± 15.1%
SIRT5 transcription increase relative to control (SIRT5; 1000 μM): 92.1 ± 16.8%
SIRT6 transcription increase relative to control (SIRT6; 3 μM): 3 ± 1%
SIRT6 transcription increase relative to control (SIRT6; 10 μM): 21.3 ± 8.1%
SIRT6 transcription increase relative to control (SIRT6; 10 μM, listed as P4): 21 ± 8%
SIRT6 transcription increase relative to control (SIRT6; 30 μM): 52 ± 5.1%
SIRT6 transcription increase relative to control (SIRT6; 30 μM, listed as P4): 52 ± 5%
SIRT6 transcription increase relative to control (SIRT6; 50 μM): 95.4 ± 13.4%
SIRT6 transcription increase relative to control (SIRT6; 50 μM, listed as P4): 95 ± 13%
SIRT6 transcription increase relative to control (SIRT6; 100 μM): 147±8% and 147%
SIRT6 transcription increase relative to control (SIRT6; 100 μM, listed as Deca): 147 ± 8.4%
SIRT6 transcription increase relative to control (SIRT6; 100 μM, listed as P4): 147 ± 8%
SIRT6 transcription increase relative to control (SIRT6; 300 μM): 189 ± 9.5%
SIRT6 transcription increase relative to control (SIRT6; 300 μM, listed as P4): 189 ± 10%
SIRT6 transcription increase relative to control (SIRT6; 500 μM): 194 ± 14%
SIRT6 transcription increase relative to control (SIRT6; 1000 μM): 167 ± 12.2%
hypopigmenting efficacy (human skin): potent hypopigmenting efficacy
viability at 168 h, 3 µM [1]: 100%
viability at 168 h, 10 µM [1]: 98.6 ± 1%
viability at 168 h, 30 µM [1]: 98.2 ± 1%
viability at 168 h, 50 µM [1]: 97.8 ± 1%
viability at 168 h, 100 µM [1]: 97.2 ± 1%
viability at 168 h, 300 µM [1]: 95.6 ± 2%
viability at 168 h, 500 µM [1]: 94.5 ± 2%
viability at 168 h, 1000 µM [1]: 93.8 ± 1%
facial skin appearance (patients with dyschromia): overall improvement in facial skin appearance
cell death ([2]; 100 μM): 3±1%
cell death ([2]; 1 mM): 7±2%
cytotoxicity compared with oxyresveratrol [2]: reduced cytotoxicity

CCCCCCCCCCCCCCCC(=O)N[C@@H](Cc1ccc(O)cc1)C(=O)N[C@@H](CCCNC(=N)N)C(=O)N[C@@H](CO)C(=O)N[C@@H](CCCNC(=N)N)C(=O)N[C@@H](CCCCN)C(=O)N[C@H](Cc1ccc(O)cc1)C(=O)N[C@@H](CO)C(=O)N[C@@H](CO)C(=O)N[C@@H](Cc1c[nH]c2ccccc12)C(=O)N[C@@H](Cc1ccc(O)cc1)C(N)=O [P4B, Palmitoyl-YRSRK[*Y]SSWY-amide] (HELM PEPTIDE1{[CCCCCCCCCCCCCCCC(=O)[*:2]].Y.R.S.R.K.[dY].S.S.W.Y.[am]}$$$$V2.0)
SIRT3 transcription increase relative to control (SIRT3; 10 μM): 22 ± 3%
SIRT3 transcription increase relative to control (SIRT3; 30 μM): 23 ± 2%
SIRT3 transcription increase relative to control (SIRT3; 50 μM): 28 ± 5%
SIRT3 transcription increase relative to control (SIRT3; 100 μM): 78 ± 10%
SIRT3 transcription increase relative to control (SIRT3; 300 μM): 142 ± 5%
SIRT5 transcription increase relative to control (SIRT5; 10 μM): 2.00%
SIRT5 transcription increase relative to control (SIRT5; 30 μM): 1.00%
SIRT5 transcription increase relative to control (SIRT5; 50 μM): 1.00%
SIRT5 transcription increase relative to control (SIRT5; 100 μM): 35 ± 3%
SIRT5 transcription increase relative to control (SIRT5; 300 μM): 29 ± 5%
SIRT6 transcription increase relative to control (SIRT6; 10 μM): 21 ± 5%
SIRT6 transcription increase relative to control (SIRT6; 30 μM): 22 ± 4%
SIRT6 transcription increase relative to control (SIRT6; 50 μM): 10 ± 4%
SIRT6 transcription increase relative to control (SIRT6; 100 μM): 107 ± 2%
SIRT6 transcription increase relative to control (SIRT6; 300 μM): 81 ± 4%
viability at 168 h, 3 µM [1]: 100%
viability at 168 h, 10 µM [1]: 98.8 ± 1%
viability at 168 h, 30 µM [1]: 98.3 ± 1%
viability at 168 h, 50 µM [1]: 97.6 ± 1%
viability at 168 h, 100 µM [1]: 97.3 ± 2%
viability at 168 h, 300 µM [1]: 96.5 ± 2%
viability at 168 h, 500 µM [1]: 95.3 ± 3%
viability at 168 h, 1000 µM [1]: 94.2 ± 3%

Ac-YRSRKYSSWY-NH2 [P4C, Acetyl-YRSRKYSSWY-amide]
SIRT3 transcription increase relative to control (SIRT3; 10 μM): 8 ± 3%
SIRT3 transcription increase relative to control (SIRT3; 30 μM): 6 ± 2%
SIRT3 transcription increase relative to control (SIRT3; 50 μM): 45 ± 9%
SIRT3 transcription increase relative to control (SIRT3; 100 μM): 82 ± 8%
SIRT3 transcription increase relative to control (SIRT3; 300 μM): 159 ± 6%
SIRT5 transcription increase relative to control (SIRT5; 10 μM): 4 ± 1%
SIRT5 transcription increase relative to control (SIRT5; 30 μM): 2 ± 1%
SIRT5 transcription increase relative to control (SIRT5; 50 μM): 3 ± 1%
SIRT5 transcription increase relative to control (SIRT5; 100 μM): 35 ± 2%
SIRT5 transcription increase relative to control (SIRT5; 300 μM): 28 ± 9%
SIRT6 transcription increase relative to control (SIRT6; 10 μM): 12 ± 3%
SIRT6 transcription increase relative to control (SIRT6; 30 μM): 9 ± 4%
SIRT6 transcription increase relative to control (SIRT6; 50 μM): 31 ± 5%
SIRT6 transcription increase relative to control (SIRT6; 100 μM): 124 ± 7%
SIRT6 transcription increase relative to control (SIRT6; 300 μM): 87 ± 3%
viability at 168 h, 3 µM [1]: 100%
viability at 168 h, 10 µM [1]: 98.9 ± 1%
viability at 168 h, 30 µM [1]: 98.3 ± 1%
viability at 168 h, 50 µM [1]: 97.8 ± 1%
viability at 168 h, 100 µM [1]: 97.4 ± 2%
viability at 168 h, 300 µM [1]: 96.5 ± 2%
viability at 168 h, 500 µM [1]: 95.7 ± 2%
viability at 168 h, 1000 µM [1]: 94.9 ± 3%

Source: patent US20180296456A1, “Decapeptide-12 Modulation of Sirtuin Gene Expression in Epidermal Keratinocyte Progenitors” (Escape Therapeutics, Inc., priority 2017, published 2018)
